Where two headings read alike, the source gives them in different places.
Columns and labels:
[1] = molecular target: cathepsin B (Rattus norvegicus, UniProt P00787); assay: In vitro assay procedure for cathepsin B (inhibition); assay type: biochemical
Procedure: The compounds of formula I were tested for inhibition of cathepsin B using the known method (A. J. Barret et al., Biochem. J. 1982, 201, 189-198). […] After 10 min of incubation at room temperature, a 20 μl of 5 mM substrate (N-CBZ-Phe-Arg-AMC, dissolved in DMSO) was added to initiate reaction. Reading is followed up for 10 min at the fluoroscan reader (excitation at 380 nm, emission at 460 nm).

[2] = molecular target: T1, papain (Carica papaya, UniProt P00784); assay: In vitro assay procedure for papain (inhibition); assay type: biochemical
T1 sequence (P00784 134-345): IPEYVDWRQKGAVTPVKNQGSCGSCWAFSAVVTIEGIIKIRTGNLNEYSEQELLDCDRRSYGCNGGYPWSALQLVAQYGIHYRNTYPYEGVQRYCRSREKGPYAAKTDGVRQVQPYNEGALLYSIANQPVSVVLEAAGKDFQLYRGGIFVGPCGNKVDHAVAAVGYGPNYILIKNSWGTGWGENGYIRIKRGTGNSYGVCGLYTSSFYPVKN
Procedure: To a 170 μl of enzyme-buffer mixture (enzyme: papain, diluted to give 30 mOD/min, buffer: 0.2 M potassium phosphate, 1.0 mM EDTA, 5 mM L-Cysteine, pH 6.5) a 10 μL of inhibitor (dissolved in DMSO) was added. After 10 min of incubation at room temperature, a 20 μl of 10 mM substrate (N-CBZ-Pro-Phe-Arg-pNA, dissolved in DMSO) was added to initiate reaction. Reading is followed up for 3 min at the Thermomax plate reader (absorbance at 405 nm)
A plot of percentage of inhibition vs inhibitor concentration is obtained, and IC50 is determined using a linear regression calculations (concentration of inhibitor which will give 50% inhibition).

[3] = rat cathepsin B, pH 5.1, 10 min incubation at room temperature, substrate N-CBZ-Phe-Arg-AMC, read-out: IC50 Cathepsin B
[4] = pH 6.5, 10 min incubation at room temperature, substrate N-CBZ-Pro-Phe-Arg-pNA, read-out: IC50 Papain

Sequence of cathepsin B (P00787 80-339): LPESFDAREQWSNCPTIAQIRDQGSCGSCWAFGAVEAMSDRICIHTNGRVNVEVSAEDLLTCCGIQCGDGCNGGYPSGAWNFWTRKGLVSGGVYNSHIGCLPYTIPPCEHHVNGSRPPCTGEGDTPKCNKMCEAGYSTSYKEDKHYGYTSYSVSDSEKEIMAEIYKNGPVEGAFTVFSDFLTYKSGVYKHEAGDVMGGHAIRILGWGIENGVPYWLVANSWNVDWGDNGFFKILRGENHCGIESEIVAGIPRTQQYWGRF

SMILES | IC50 [1, 3] | IC50 [2, 4] | IC50 [2] | IC50 [1]
NC(CC(=O)O)C(=O)NCC(=O)NCC1CN2C(=O)CC2O1 (stereo not shown) [Example 40] | 15900 nM | 8300 nM | – | –
O=C(N[C@@H](Cc1ccccc1)C(=O)NCC1CN2C(=O)CC2O1)OCc1ccccc1 (stereo partly shown) [Example 23] | 2400 nM | 350 nM | – | –
O=C(OC[C@H]1CN2C(=O)C[C@@H]2O1)C1CCCC1 (racemic) [Example 12, (3RS,5SR)-3-(cyclopentanecarbonyloxymethyl)-4-oxa-1-azabicyclo [3,2,0] heptan-7-one] | 660 nM | 1130 nM | – | –
CS(=O)(=O)NCC1CN2C(=O)CC2O1 (stereo not shown) [Example 33] | 950 nM | 910 nM | – | –
O=C1CC2OC(CSc3ccccc3)CN12 (stereo not shown) [Example 48] | 420 nM | 850 nM | – | –
COc1ccc(C(=O)NCC2CN3C(=O)CC3O2)cc1OC (stereo not shown) [Example 47] | 8800 nM | 130 nM | – | –
NC(CC(=O)O)C(=O)OCC1CN2C(=O)CC2O1 (stereo not shown) [Example 22] | > 20000 nM | > 20000 nM | – | –
O=C(O)c1ccccc1C(=O)OCC1CN2C(=O)CC2O1 (stereo not shown) [Example 64] | 6900 nM | 16000 nM | – | –
COc1cc(C(=O)OCC2CN3C(=O)CC3O2)cc(OC)c1O (stereo not shown) [Example 52] | 3100 nM | 620 nM | – | –
O=C(O)COc1ccc(C(=O)OCC2CN3C(=O)CC3O2)cc1 (stereo not shown) [Example 63] | 2000 nM | 2900 nM | – | –
O=C1CC2OC(C[S+]([O-])Cc3ccccc3)CN12 (stereo not shown) [Example 62] | 8700 nM | 760 nM | – | –
O=C(OCC1CN2C(=O)CC2O1)c1cc(F)c(F)cc1F (stereo not shown) [Example 54] | 8300 nM | 660 nM | – | –
O=C(OC[C@H]1CN2C(=O)C[C@@H]2O1)[C@@H]1CCCN1C(=O)OCc1ccccc1 (mixture of isomers) [Example 5, (3RS,5SR)-3-{N-(benzyloxycarbonyl)-L-prolyl}-oxymethyl-4-oxa-1-azabicyclo[3,2,0] heptan-7-one] | 440 nM | 490 nM | – | –
O=C(/C=C/c1ccccc1)OC[C@H]1CN2C(=O)C[C@@H]2O1 (relative stereo) [Example 13, (3RS, 5SR)-3-(trans-3-phenylpropenoyl)oxymethyl-4-oxa-1-azabicyclo [3,2,0] heptan-7-one] | 4060 nM | 450 nM | – | –
O=C(OCC1CN2C(=O)CC2O1)c1ccc(F)cc1 (stereo not shown) [Example 66] | 3800 nM | 2400 nM | – | –
CCCCCC(=O)NCC1CN2C(=O)CC2O1 (stereo not shown) [Example 32] | 2300 nM | 2300 nM | – | –
CC(N)C(=O)OCC1CN2C(=O)CC2O1 (stereo not shown) [Example 25] | > 20000 nM | 3310 nM | – | –
O=C(O)CC1CN2C(=O)CC2O1 (stereo not shown) | 3980 nM | – | 1690 nM | –
NCC1CN2C(=O)CC2O1 (stereo not shown) [Example 39] | 5500 nM | 5500 nM | – | –
O=C(OCC1CN2C(=O)CC2O1)c1ccc(O)c(O)c1 (stereo not shown) [Example 50] | 460 nM | 2500 nM | – | –

SMILES | IC50 [1, 3] | IC50 [2, 4] | IC50 [2] | IC50 [1]
CC(=O)OCC1CN2C(=O)CC2O1 (stereo not shown) [Example 44] | 1100 nM | 210 nM | – | –
Nc1ccc(C(=O)OCC2CN3C(=O)CC3O2)cc1 (stereo not shown) [Example 53] | 3800 nM | 2400 nM | – | –
O=C1CC2OC(CS(=O)(=O)c3ccccc3)CN12 (stereo not shown) [Example 61] | 1600 nM | 1600 nM | – | –
O=C(O)CS(=O)(=O)CC1CN2C(=O)CC2O1 (stereo not shown) [Example 35] | 740 nM | 12900 nM | – | –
O=C(O)C[S+]([O-])CC1CN2C(=O)CC2O1 (stereo not shown) [Example 29] | 380 nM | 3900 nM | – | –
CC(=O)NC[C@H]1CN2C(=O)C[C@@H]2O1 [Example 3, (3S,5S)-3-(N-acetylamino)methyl-4-oxa-1-azabicyclo [3,2,0] heptan-7-one] | 560 nM | 590 nM | – | –
O=C1C[C@@H]2O[C@@H](Cn3ccnn3)CN12 [Example 17, (3R,5S)-3-(1,2,3-triazol-1-yl)-methyl-4-oxa-1-azabicyclo [3,2,0] heptan-7-one] | 290 nM | – | 290 nM | –
CC[C@H](C)[C@H](NC(=O)OCc1ccccc1)C(=O)N1CCC[C@H]1C(=O)OC[C@H]1CN2C(=O)C[C@@H]2O1 (mixture of isomers) [Example 8, (3RS, 5SR)-3-{N-(benzyloxycarbonyl)-L-isoleucyl-L-prolyl}-oxymethyl-4-oxa-1-azabicyclo [3,2,0] heptan-7-one] | 4500 nM | 740 nM | – | –
O=C1CC2OC(CNS(=O)(=O)c3ccc(Cl)cc3)CN12 (stereo not shown) [Example 57] | 630 nM | 630 nM | – | –
O=C(NC(CO)C(=O)OCC1CN2C(=O)CC2O1)OCc1ccccc1 (stereo not shown) [Example 69] | 2700 nM | 1500 nM | – | –
O=C(CNC(=O)[C@H](Cc1ccccc1)NC(=O)OCc1ccccc1)OC[C@H]1CN2C(=O)C[C@@H]2O1 (mixture of isomers) [Example 7, (3RS,5SR)-3-{N-(benzyloxycarbonyl)-L-phenylalanyl-glycyl}-oxymethyl-4-oxa-1-azabicyclo [3,2,0] heptan-7-one] | 3110 nM | 3510 nM | – | –
COc1ccc(C(=O)OCC2CN3C(=O)CC3O2)cc1OC (stereo not shown) [Example 51] | 3300 nM | 130 nM | – | –
NC(CCC(=O)OCC1CN2C(=O)CC2O1)C(=O)O (stereo not shown) [Example 24] | 12000 nM | 2920 nM | – | –
COc1ccc(S(=O)(=O)NCC2CN3C(=O)CC3O2)cc1 (stereo not shown) [Example 59] | 640 nM | 3200 nM | – | –
O=C(OCc1ccccc1)[C@@H]1CCCN1C(=O)CC1CN2C(=O)CC2O1 (stereo partly drawn) [Example 20, N-{(7-oxo-4-oxa-1-azabicyclo [3,2,0]heptan-3-yl)-methylcarbonyl} L-proline benzyl ester] | 13700 nM | 560 nM | – | –
N#Cc1ccc(C(=O)OCC2CN3C(=O)CC3O2)cc1 (stereo not shown) [Example 55] | 3700 nM | 740 nM | – | –
O=C(NCC1CN2C(=O)CC2O1)C1CCCCC1 (stereo not shown) [Example 75] | 360 nM | 3970 nM | – | –
O=C1CC2OC(CNC(=O)C(F)(F)F)CN12 (stereo not shown) [Example 28] | 330 nM | 840 nM | – | –
O=C(OCC1CN2C(=O)CC2O1)c1ccc2c(c1)C(=O)c1ccccc1C2=O (stereo not shown) [Example 46] | 530 nM | 21 nM | – | –
CC(N)C(=O)NCC1CN2C(=O)CC2O1 (stereo not shown) [Example 26] | > 20000 nM | 2910 nM | – | –

SMILES | IC50 [1, 3] | IC50 [2, 4] | IC50 [2] | IC50 [1]
Cn1c2nc(=O)[nH]c(=O)c-2nc2cc(C(=O)OC[C@H]3CN4C(=O)C[C@@H]4O3)ccc21 (relative stereo) [Example 14, (3RS, 5SR)-3-(10-methylisoalloxazin-7-yl)-carbonyloxy methyl-4-oxa-1-azabicyclo [3,2,0] heptan-7-one] | 16900 nM | 760 nM | – | –
O=C(NC(c1ccccc1)C(O)C(=O)OCC1CN2C(=O)CC2O1)c1ccccc1 (stereo not shown) [Example 71] | 240 nM | 240 nM | – | –
COc1ccc(C(=O)NCC2CN3C(=O)CC3O2)cc1 (stereo not shown) [Example 68] | 3600 nM | 720 nM | – | –
O=C(OCC1CN2C(=O)CC2O1)c1ccccc1 (stereo not shown) [Example 60] | 4000 nM | 4000 nM | – | –
O=C(O)C1CCCCC1C(=O)OCC1CN2C(=O)CC2O1 (stereo not shown) [Example 76] | 340 nM | 10900 nM | – | –
CC(=O)NCC(=O)NCC1CN2C(=O)CC2O1 (stereo not shown) [Example 31] | 2600 nM | 4100 nM | – | –
COc1ccc(C(=O)OCC2CN3C(=O)CC3O2)cc1 (stereo not shown) [Example 65] | 8900 nM | 2000 nM | – | –
O=C(CCCCCCn1ccnn1)NCC1CN2C(=O)CC2O1 (stereo not shown) [Example 74] | 6500 nM | 3300 nM | – | –
O=C(CC1CN2C(=O)CC2O1)OC(c1ccccc1)c1ccccc1 (stereo not shown) [Example 18, diphenylmethyl 2-(7-oxo-4-oxa-1-azabicyclo [3,2,0]heptan-3-yl)-acetate] | 2970 nM | 2080 nM | – | –
O=C(OCC1CN2C(=O)CC2O1)c1ccc(O)cc1 (stereo not shown) [Example 67] | 3800 nM | 2400 nM | – | –
CC(=O)NCC[S+]([O-])CC1CN2C(=O)CC2O1 (stereo not shown) [Example 34] | 14600 nM | 3800 nM | – | –
O=COCCCCCC(=O)NCC1CN2C(=O)CC2O1 (stereo not shown) [Example 38] | 3500 nM | 2200 nM | – | –
Cc1c(C(=O)OC[C@H]2CN3C(=O)C[C@@H]3O2)c(=O)[nH]c2ccccc12 (relative stereo) [Example 10, (3RS, 5SR)-3-(1,2-dihydro-4-methyl-2-oxo-guinolin-3-yl)-carbonyloxymethyl-4-oxa-1-azabicyclo [3,2,0] heptan-7-one] | 3050 nM | 140 nM | – | –
O=C(CNC(=O)OCc1ccccc1)NCC(=O)OCC1CN2C(=O)CC2O1 (stereo not shown) [Example 70] | 6700 nM | 350 nM | – | –
CC(C)(C)[Si](C)(C)OC[C@H]1CN2C(=O)C[C@H]2O1 [Example 1B, (3R, 5R)-3-(tert-butyldimethylsilyl)oxymethyl-4-oxa-1-azabicyclo [3,2,0] heptan-7-one] | – | 3100 nM | – | 7780 nM
NC(CC(=O)O)C(=O)NCC1CN2C(=O)CC2O1 (stereo not shown) [Example 21] | 12600 nM | > 20000 nM | – | –
CC(=O)NCCCCC(NC(C)=O)C(=O)OCC1CN2C(=O)CC2O1 (stereo not shown) [Example 43] | > 70000 nM | 1770 nM | – | –
O=C(O)C=CC(=O)OCC1CN2C(=O)CC2O1 (stereo not shown) [Example 37] | 1900 nM | 19000 nM | – | –
O=C(NCC1CN2C(=O)CC2O1)c1ccccc1 (stereo not shown) [Example 58] | 4100 nM | 810 nM | – | –

Reference: US5925633A, “3-Substituted-4-oxa-1-azabicyclo [3,2,0]heptan-7-one as cysteine protease inhibitors” (Synphar Laboraties, Inc., priority 1996, dated 1999)
